Experimental data: patent US9856218B2, “Inhibitors of PRMT5 and methods of their use” (Ohio State Innovation Foundation, priority 2013, dated 2018)
“Also recorded” adds a separate entry of the source.

What was measured:
[1] = tested on: SP1 protein in AML cell lines (FLT3-ITD and FLT3-WT); experiment: SP1 protein levels, Western blotting; format: cell-based
Method: (§1) Whole cell lysates were prepared by suspending cell pellets in RIPA buffer for 20 min (1% NP-40, 0.1% SDS, 150 mM NaCl, 50 mM Tris, pH 8.0), then supplemented with 1× complete EDTA free protease inhibitor (Roche) and 1× PhosStop (Roche). Lysates were separated by 4-20% SDS-PAGE and transferred to PVDF membrane (GE Healthcare, Piscataway, N.J.). Membranes were blocked with 5% milk or BSA in 1×TBS with 0.1% Tween 20 for 1 hour at room temperature with shaking. Primary antibodies for ACTIN, GAPDH and FLT3 (Santa Cruz Biotechnology, Santa Cruz Calif.), P65 (Cell signaling), PRMT5 and SP1 (Millipore), H4R3, H3R8, H3 and H4 (Abcam), were diluted 1:1000 or 1:2000 in 5% milk or BSA and incubated for 1-2 hr at room temperature. Membranes were washed using 1×TBS-T, incubated with HRP-conjugated secondary antibodies diluted in 1×TBS-T with 5% milk or BSA, washed, and developed using SuperSignal West Dura Chemiluminescent Substrate (Thermo Scientific). […]
A similar trend was documented in the in vivo murine model of PRMT5 overexpression generated by THP-1/PRMT5 engraftment, as a significant increase in SP1 levels was measured when compared to THP-1/EV control mice (FIG. 45). […]

MOLM-13 = experiment: MTS growth inhibition assay; format: cell-based; settings: Homo sapiens; MOLM-13, FLT3-ITD+, 48 h
Method: Clonogenic assays were set up by plating 1×10^3 cell/mL in semi-solid methylcellulose medium (MethoCult, Stem Cell Technologies). Colonies were counted after 10-14 days using an inverted microscope. Growth inhibition assays were measured using a colorimetric MTS assay: 5×10^4 cells were plated in 100 μL final volume in a 96-well plate in the presence of different concentrations of C12 for 24, 48 and 72 hours at 37° C. Afterwards, 20 μL of the CellTiter 96W AQueous One Solution Reagent, which contains tetrazolium compound [3-(4,5-[…])-5-(3-carboxymethoxyphenyl)-2-(4-sulfophenyl)-2H-tetrazolium, inner salt; MTS] and an electron coupling reagent (phenazine ethosulfate; PES) (Promega, Madison Wis.), was added to each well. Within 1-4 hours of incubation at 37° C., the optical density at 490 and 690 nm was measured. Cell viability was calculated with respect to the control samples and reference background wavelength at 690 nm. At least three independent experiments were performed. Growth curve assays were done by counting live cells using Trypan blue exclusion and inverted microscope for >12 days after plating the cells in 1×10^5 concentrations.
PRMT5 inhibition by C12 was also effective in promoting apoptosis and differentiation.
Referring to FIGS. 34A and 34B, a colorimetric MTS assay was used to measure the proliferation rate of AML cell lines and primary blasts from patients after 48 hours incubation with a PRMT5 inhibitor compound (HLCL61 or C12). The dose-dependent decrease in absorbance indirectly correlates with the number of metabolically active live cells. The IC50 values represent the concentration of the compound at which 50% cell death was achieved.

[2] = In vivo pharmacokinetics, plasma concentration; set-up: species or system Mouse; settings: mouse, in vivo
Source text: Pharmacokinetic data of compounds HLCL-7, HLCL-61, and HLCL-66 taken from an in vivo study is illustrated in Table 10. […]

[3] = tested on: symmetrically dimethylated H3 (H3R8me2) and H4 (H4R3me2) in AML samples; experiment: Western blotting of PRMT5 histone marks; format: cell-based; settings: FIG. 33B, listed as C12
Method: as §1, with “Scientific). Whole cell lysate (at least 500 μg) was used to pull down protein complexes using Catch and Release v2.0 Reversible Immunoprecipitation System (Millipore) and ˜4 μg antibodies against PRMT5, SP1, p65 and 1 μg normal IgG as negative control (Millipore). Denatured pull down samples were subjected to regular western blotting with exception of using TrueBlot IP secondary antibody (Rockland) for immunodetection.” for “Scientific).”

[4] = tested on: Mantle cell lymphoma cell line Jeko; experiment: Induction of apoptosis, FITC-Annexin V-PI flow cytometry; format: cell-based
Method: Analysis by flow cytometry. Cell viability was also measured by flow cytometry at 24 and 48 hr using annexin-V-FITC and propidium iodide (PI) according to the manufacturer's instructions (BD Biosciences).
Following the synthesis of 14 compounds, the anti-proliferation and pro-apoptotic activities of those compounds was evaluated in Mantle cell lymphoma cell line Jeko. Replicate cultures of Jeko were incubated in DMSO and the compounds for 24, 48 and 72 hours. FITC-Annexin V-PI stained flow cytometry was used to detect the apoptotic population of cells (Table 4).

For `CCn1c2ccccc2c2cc(CNCc3ccccc3OC)ccc21` [HLCL-61], the SP1 protein levels [1] was “significant knockdown of SP1 protein levels”, the IC50 (MOLM-13) was 21.5 µM and the concentration at 0.08 h ([2]; ip, 25 mg/kg) was 3.15 µM. For the same compound, the concentration at 0.17 h ([2]; ip, 25 mg/kg) was 2.28 µM, the concentration at 0.33 h ([2]; ip, 25 mg/kg) was 2.04 µM and the concentration at 0.5 h ([2]; ip, 25 mg/kg) was 1.83 µM. The concentration at 1 h ([2]; ip, 25 mg/kg) was 1.39 µM, the concentration at 2 h ([2]; ip, 25 mg/kg) was 1.5 µM and the concentration at 4 h ([2]; ip, 25 mg/kg) was 0.712 µM. The concentration at 6 h ([2]; ip, 25 mg/kg) was 0.696 µM, the concentration at 8 h ([2]; ip, 25 mg/kg) was 0.332 µM and the concentration at 24 h ([2]; ip, 25 mg/kg) was 0.0014 µM. For the same compound, the concentration at 0.08 h ([2]; iv, 5 mg/kg) was 1.22 µM, the concentration at 0.17 h ([2]; iv, 5 mg/kg) was 1.61 µM and the concentration at 0.33 h ([2]; iv, 5 mg/kg) was 0.702 µM. For the same compound, the concentration at 0.5 h ([2]; iv, 5 mg/kg) was 0.994 µM, the concentration at 1 h ([2]; iv, 5 mg/kg) was 0.942 µM and the concentration at 2 h ([2]; iv, 5 mg/kg) was 0.525 µM. It also gave a concentration at 4 h ([2]; iv, 5 mg/kg) of 0.155 µM, a concentration at 6 h ([2]; iv, 5 mg/kg) of 0.0944 µM and a concentration at 8 h ([2]; iv, 5 mg/kg) of 0.0511 µM. For the same compound, the concentration at 24 h ([2]; iv, 5 mg/kg) was 0.00676 µM, the “methylation inhibition of histones H3 and H4” value [3] was “most effective; also recorded: down-regulation of symmetrically dimethylated H3 (H3R8me2) and H4 (H4R3me2)” and the EC50 ([4]; 24 h) was 15 µM. For the same compound, the EC50 ([4]; 48 h) was 11 µM.
